From article PMC10567702, “A concerted ATPase cycle of the protein transporter AAA-ATPase Bcs1” (Nature Communications, 2023)

Assays:
Bcs1 (mBcs1) [1] = molecular target: T1, Bcs1 (mBcs1) (Mus musculus, UniProt Q9CZP5); assay: microscale thermophoresis, RED-tris-NTA labelled Bcs1; type: binding
T1 construct: gene Bcs1l; full length residues 1-418, C-terminal hexa-His tag, expressed in Pichia pastoris, purified in DDM, homo-heptamer; reconstituted in soy polar lipid membranes for HS-AFM
T1 sequence (Q9CZP5 1-418): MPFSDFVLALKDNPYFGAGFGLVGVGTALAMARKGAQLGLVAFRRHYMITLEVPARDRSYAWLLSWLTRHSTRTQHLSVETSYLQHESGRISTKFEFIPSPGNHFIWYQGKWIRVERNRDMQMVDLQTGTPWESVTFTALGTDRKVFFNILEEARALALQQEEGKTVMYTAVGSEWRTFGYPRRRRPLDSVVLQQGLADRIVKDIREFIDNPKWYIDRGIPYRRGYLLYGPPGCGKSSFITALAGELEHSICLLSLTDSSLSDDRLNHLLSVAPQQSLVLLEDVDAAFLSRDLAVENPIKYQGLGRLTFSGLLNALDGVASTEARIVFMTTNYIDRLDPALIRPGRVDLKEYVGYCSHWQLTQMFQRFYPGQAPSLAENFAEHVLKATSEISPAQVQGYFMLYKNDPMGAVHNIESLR

Bcs1 (mBcs1) [2] = molecular target: T1, Bcs1 (mBcs1); assay: HS-AFM imaging, probability of AMP-PNP conformation, Hill fit; type: binding
Bcs1 (mBcs1) [3] = molecular target: T1, Bcs1 (mBcs1); assay: HS-AFM imaging, conformational change on binding; conditions: 10 µM ATPγS; reconstituted membranes; 10 mM HEPES pH 7.5, 200 mM NaCl, 2 mM MgCl2; ambient temperature

For `Nc1ncnc2c1ncn2[C@@H]1O[C@H](COP(=O)(O)OP(=O)(O)O)[C@@H](O)[C@H]1O` [ADP], the Kd (Bcs1 (mBcs1) [1]) was roughly 0.5 µM.

`Nc1ncnc2c1ncn2[C@@H]1O[C@H](COP(=O)(O)OP(=O)(O)NP(=O)(O)O)[C@@H](O)[C@H]1O` [AMP-PNP] was tested, and the EC50 (Bcs1 (mBcs1) [2]) was roughly 4 µM.

`Nc1ncnc2c1ncn2[C@@H]1O[C@H](COP(=O)(O)OP(=O)(O)OP(O)(O)=S)[C@@H](O)[C@H]1O` [ATPγS] was tested, and the “HS-AFM imaging, conformational change on binding” value (Bcs1 (mBcs1) [3]) was “In the presence of ATPγS however, instead of a ring structure, we found a rather flat disk”.
